Results reported in patent US20230295200A1 (REGENTS OF THE UNIVERSITY OF MICHIGAN, priority 2022, published 2023).

Target: T1, STAT6 protein (Homo sapiens, UniProt P42226)
T1 sequence (P42226 1-847): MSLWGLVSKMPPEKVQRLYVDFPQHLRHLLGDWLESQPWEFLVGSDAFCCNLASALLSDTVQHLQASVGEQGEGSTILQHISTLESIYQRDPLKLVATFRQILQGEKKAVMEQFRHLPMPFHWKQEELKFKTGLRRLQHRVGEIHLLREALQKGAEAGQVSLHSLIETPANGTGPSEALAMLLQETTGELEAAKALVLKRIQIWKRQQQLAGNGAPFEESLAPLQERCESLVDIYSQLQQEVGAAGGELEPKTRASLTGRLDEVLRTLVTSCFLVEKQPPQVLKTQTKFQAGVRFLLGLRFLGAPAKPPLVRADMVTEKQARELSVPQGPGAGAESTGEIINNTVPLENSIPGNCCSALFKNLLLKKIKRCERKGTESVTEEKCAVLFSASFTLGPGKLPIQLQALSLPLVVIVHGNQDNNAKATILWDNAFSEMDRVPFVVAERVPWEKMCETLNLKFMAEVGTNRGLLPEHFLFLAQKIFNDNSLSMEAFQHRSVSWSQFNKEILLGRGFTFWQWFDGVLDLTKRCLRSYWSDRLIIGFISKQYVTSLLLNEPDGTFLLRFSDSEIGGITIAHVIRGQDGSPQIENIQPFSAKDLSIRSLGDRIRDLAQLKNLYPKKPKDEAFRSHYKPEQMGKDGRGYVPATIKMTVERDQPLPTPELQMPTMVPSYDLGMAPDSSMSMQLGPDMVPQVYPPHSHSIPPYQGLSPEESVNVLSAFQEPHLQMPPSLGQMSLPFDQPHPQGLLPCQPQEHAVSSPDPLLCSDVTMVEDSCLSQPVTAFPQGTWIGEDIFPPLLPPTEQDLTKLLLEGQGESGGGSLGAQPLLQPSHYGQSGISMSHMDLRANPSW
Assay: Fluorescence polarization (FP) binding assay, STAT6
Conditions: FP competition, 5 nM fluorescein-labeled tracer, 200 nM protein, PBS pH7.4; read-out: Binding STAT6
Method: Evaluation of the activity of the inhibitors may be accomplished by fluorescence polarization (FP) experiments. A representative general protocol is the following:
Fluorescence polarization (FP) experiments are performed in black round-bottom plates using the CLARIOstar microplate reader. To each well, fluorescein-labeled tracer and STAT5 or STAT6 protein are added in assay buffer. […] The inhibition constants are determined as the concentration of the STAT5 or STAT6 at which 50% of the ligand is bound.
Fluorescence polarization (FP) experiments were performed in 96-well, black round-bottom plates (Microfluor 2, Fisher Scientific) using the CLARIOstar microplate reader (BMG Labtech). To each well, 5 nM of fluoresceinlabeled tracer and 200 nM of STAT5 and/or STAT6 protein were added to a final volume of 100 μl in the assay buffer (PBS pH7.4+0.01% BGG+0.01% Tween-20, 2 mM DTT). The plate was mixed on a shaker for 15 m and incubated at room temperature for 1 h to reach equilibrium. […] All experimental data were analyzed using Prism 8.0 software (GraphPad Software), and the inhibition constants were determined by nonlinear curve fitting as the concentration of the STAT5 and/or STAT6 at which 50% of the ligand is bound.

Ki	Compound
100 to 1000 nM	CCOC(=O)CO[C@H]1C[C@@H](C(=O)N(CCC(=O)O)c2ccc(Br)cc2)N(C(=O)[C@@H](NC(=O)c2cc3cc(C(F)(F)P(=O)(O)O)ccc3s2)C(C)(C)C)C1 [Compound 47, 3-((2S,4S)-N-(4-bromophenyl)-1-((S)-2-(5-(difluoro(phosphono)methyl)benzo [b]thiophene-2-carboxamido)-3,3-dimethylbutanoyl)-4-(2-ethoxy-2-oxoethoxy)pyrrolidine-2-carboxamido)propanoic acid]
100 to 1000 nM	CCOC(=O)CO[C@@H]1C[C@@H](C(=O)N(CCC(=O)O)c2ccc(Br)cc2)N(C(=O)[C@@H](NC(=O)c2cc3cc(C(F)(F)P(=O)(O)O)ccc3s2)C(C)(C)C)C1 [Compound 48, 3-((2S,4R)-N-(4-bromophenyl)-1-((S)-2-(5-(difluoro(phosphono)methyl)benzo[b]thiophene-2-carboxamido)-3,3-dimethylbutanoyl)-4-(2-ethoxy-2-oxoethoxy)pyrrolidine-2-carboxamido)propanoic acid]
100 to 1000 nM	CC(C)(C)[C@H](NC(=O)c1cc2cc(C(F)(F)P(=O)(O)O)ccc2s1)C(=O)N1C[C@@H](OCC(=O)O)C[C@H]1C(=O)N(CCC(=O)O)c1ccc(Br)cc1 [Compound 49, 3-((2S,4S)-N-(4-bromophenyl)-4-(carboxymethoxy)-1-((S)-2-(5-(difluoro(phosphono)methyl)benzo[b]thiophene-2-carboxamido)-3,3-dimethylbutanoyl)pyrrolidine-2-carboxamido)propanoic acid]
100 to 1000 nM	CC(C)(C)[C@H](NC(=O)c1cc2cc(C(F)(F)P(=O)(O)O)ccc2s1)C(=O)N1C[C@H](OCC(=O)O)C[C@H]1C(=O)N(CCC(=O)O)c1ccc(Br)cc1 [Compound 50, 3-((2S,4R)-N-(4-bromophenyl)-4-(carboxymethoxy)-1-((S)-2-(5-(difluoro(phosphono)methyl)benzo[b]thiophene-2-carboxamido)-3,3-dimethylbutanoyl)pyrrolidine-2-carboxamido)propanoic acid]
100 to 1000 nM	CNC(=O)CCN(C(=O)[C@@H]1C[C@H](OCC(=O)NC)CN1C(=O)[C@@H](NC(=O)c1cc2cc(C(F)(F)P(=O)(O)O)ccc2s1)C(C)(C)C)c1ccc(Br)cc1 [Compound 51, ((2-(((S)-1-((2S,4S)-2-((4-bromophenyl)(3-(methylamino)-3-oxopropyl)carbamoyl)-4-(2-(methylamino)-2-oxoethoxy)pyrrolidin-1-yl)-3,3-dimethyl-1-oxobutan-2-yl)carbamoyl)benzo[b]thiophen-5-yl)difluoromethyl)phosphonic acid]
100 to 1000 nM	CNC(=O)CCN(C(=O)[C@@H]1C[C@@H](OCC(=O)NC)CN1C(=O)[C@@H](NC(=O)c1cc2cc(C(F)(F)P(=O)(O)O)ccc2s1)C(C)(C)C)c1ccc(Br)cc1 [Compound 52, ((2-(((S)-1-((2S,4R)-2-((4-bromophenyl)(3-(methylamino)-3-oxopropyl)carbamoyl)-4-(2-(methylamino)-2-oxoethoxy)pyrrolidin-1-yl)-3,3-dimethyl-1-oxobutan-2-yl)carbamoyl)benzo[b]thiophen-5-yl)difluoromethyl)phosphonic acid]
100 to 1000 nM	CCCN(C(=O)[C@@H]1C[C@H](OCC(=O)OCC)CN1C(=O)[C@@H](NC(=O)c1cc2cc(C(F)(F)P(=O)(O)O)ccc2s1)C(C)(C)C)c1ccc(Br)cc1 [Compound 55, ((2-(((S)-1-((2S,4S)-2-((4-bromophenyl)(propyl)carbamoyl)-4-(2-ethoxy-2-oxoethoxy)pyrrolidin-1-yl)-3,3-dimethyl-1-oxobutan-2-yl)carbamoyl)benzo[b]thiophen-5-yl)difluoromethyl)phosphonic acid]
100 to 1000 nM	CCOC(=O)CO[C@H]1C[C@@H](C(=O)N(CCC(=O)NC)c2ccc(Br)cc2)N(C(=O)[C@@H](NC(=O)c2cc3cc(C(F)(F)P(=O)(O)O)ccc3s2)C(C)(C)C)C1 [Compound 56, ((2-(((S)-1-((2S,4S)-2-((4-bromophenyl)(3-(methylamino)-3-oxopropyl)carbamoyl)-4-(2-ethoxy-2-oxoethoxy)pyrrolidin-1-yl)-3,3-dimethyl-1-oxobutan-2-yl)carbamoyl)benzo[b]thiophen-5-yl)difluoromethyl)phosphonic acid]
100 to 1000 nM	CCOC(=O)CO[C@H]1C[C@@H](C(=O)N(CCC(=O)N(C)C)c2ccc(Br)cc2)N(C(=O)[C@@H](NC(=O)c2cc3cc(C(F)(F)P(=O)(O)O)ccc3s2)C(C)(C)C)C1 [Compound 57, ((2-(((S)-1-((2S,4S)-2-((4-bromophenyl)(3-(dimethylamino)-3-oxopropyl)carbamoyl)-4-(2-ethoxy-2-oxoethoxy)pyrrolidin-1-yl)-3,3-dimethyl-1-oxobutan-2-yl)carbamoyl)benzo[b]thiophen-5-yl)difluoromethyl)phosphonic acid]

Second part, the compound before the results:

Compound	Ki
CCOC(=O)CO[C@H]1C[C@@H](C(=O)Nc2ccc(I)cc2)N(C(=O)[C@@H](NC(=O)c2cc3cc(C(F)(F)P(=O)(O)O)ccc3s2)C(C)(C)C)C1 [Compound 53, ((2-(((S)-1-((2S,4S)-4-(2-ethoxy-2-oxoethoxy)-2-((4-iodophenyl)carbamoyl)pyrrolidin-1-yl)-3,3-dimethyl-1-oxobutan-2-yl)carbamoyl)benzo[b]thiophen-5-yl)difluoromethyl)phosphonic acid]	1000 to 10000 nM
CCOC(=O)CO[C@H]1C[C@@H](C(=O)N(C)c2ccc(Br)cc2)N(C(=O)[C@@H](NC(=O)c2cc3cc(C(F)(F)P(=O)(O)O)ccc3s2)C(C)(C)C)C1 [Compound 54, ((2-(((S)-1-((2S,4S)-2-((4-bromophenyl)(methyl)carbamoyl)-4-(2-ethoxy-2-oxoethoxy)pyrrolidin-1-yl)-3,3-dimethyl-1-oxobutan-2-yl)carbamoyl)benzo[b]thiophen-5-yl)difluoromethyl)phosphonic acid]	100 to 1000 nM
CC(C)(C)[C@H](NC(=O)c1cc2cc(C(F)(F)P(=O)(O)O)ccc2s1)C(=O)N1Cc2ccccc2C[C@H]1C(=O)N1CCOC(c2cccnc2)C1 (stereo partly drawn) [Compound 217, ((2-(((2S)-3,3-dimethyl-1-oxo-1-((3S)-3-(2-(pyridin-3-yl)morpholine-4-carbonyl)-3,4-dihydroisoquinolin-2(1H)-yl)butan-2-yl)carbamoyl)benzo[b]thiophen-5-yl)difluoromethyl)phosphonic acid]	< 100 nM
CC(C)(C)[C@H](NC(=O)c1cc2cc(C(F)(F)P(=O)(O)O)ccc2s1)C(=O)N1Cc2ccccc2C[C@H]1C(=O)N1CCOC(c2ccncc2)C1 (stereo partly drawn) [Compound 218, ((2-(((2S)-3,3-dimethyl-1-oxo-1-((3S)-3-(2-(pyridin-4-yl)morpholine-4-carbonyl)-3,4-dihydroisoquinolin-2(1H)-yl)butan-2-yl)carbamoyl)benzo[b]thiophen-5-yl)difluoromethyl)phosphonic acid]	100 to 1000 nM
CC(C)(C)[C@H](NC(=O)c1cc2cc(C(F)(F)P(=O)(O)O)ccc2s1)C(=O)N1Cc2ccccc2C[C@H]1C(=O)N1CCOC(c2nccs2)C1 (stereo partly drawn) [Compound 219, ((2-(((2S)-3,3-dimethyl-1-oxo-1-((3S)-3-(2-(thiazol-2-yl)morpholine-4-carbonyl)-3,4-dihydroisoquinolin-2(1H)-yl)butan-2-yl)carbamoyl)benzo[b]thiophen-5-yl)difluoromethyl)phosphonic acid]	< 100 nM
CC(C)(C)[C@H](NC(=O)c1cc2cc(C(F)(F)P(=O)(O)O)ccc2s1)C(=O)N1Cc2ccccc2C[C@H]1C(=O)N1CCCOC(c2ccccc2)C1 (stereo partly drawn) [Compound 220, ((2-(((2S)-3,3-dimethyl-1-oxo-1-((3S)-3-(2-phenyl-1,4-oxazepane-4-carbonyl)-3,4-dihydroisoquinolin-2(1H)-yl)butan-2-yl)carbamoyl)benzo[b]thiophen-5-yl)difluoromethyl)phosphonic acid]	100 to 1000 nM
CC(C)(C)[C@H](NC(=O)c1cc2cc(C(F)(F)P(=O)(O)O)ccc2s1)C(=O)N1Cc2ccccc2C[C@H]1C(=O)N1CCOC(Cc2ccccc2)C1 (stereo partly drawn) [Compound 221, ((2-(((2S)-1-((3S)-3-(2-benzylmorpholine-4-carbonyl)-3,4-dihydroisoquinolin-2(1H)-yl)-3,3-dimethyl-1-oxobutan-2-yl)carbamoyl)benzo[b]thiophen-5-yl)difluoromethyl)phosphonic acid]	100 to 1000 nM
